For assay [1], the target named is p38α activated, mitogen-activated protein kinase-activated protein kinase 2 (MAPKAP-K2 or MK2) enzyme (Homo sapiens (Human), UniProt P49137). Description: MK2 Omnia continuous-read kinase assay for compound potency. The class given is biochemical. The note with it: read-out: MK2 IC50. The method in brief:
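Continuous fluorescence read (λex360/λem485) with 0.4 nM p38α-activated MK2, 10 μM ATP (apparent KM) and 10 μM S/T3-Sox peptide, monitored over 120 min at room temperature. Background-corrected initial slopes gave % inhibition and IC50 with Hill slope; exponential fits gave kobs, yielding apparent kinact/KI.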

Assay [2] has as its target T1, MK2 (Homo sapiens (Human), UniProt P49137).
For assay [3], the target named is T1, MK2. The assay is described as follows: MK2 cellular assay, total and phospho-Hsp27 (Serine 78) by MSD ELISA (Thp1). The assay is classed as cell-based. Particulars: Thp-1 cells, 1 hour compound, 50 ng/mL LPS 45 minutes, p-HSP27 (Ser78)/total HSP27; read-out: pHSP27 signaling EC50. In short, it runs like this:
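PMA-differentiated (10 ng/mL, 72 h) Thp-1 cells were pretreated with compound (top 3000 nM) for 1 h at 37 °C, then stimulated with 50 ng/mL LPS for 45 min. Lysate phospho-Hsp27 (Ser78) and total Hsp27 were read by MSD electrochemiluminescence ELISA, and the value is expressed as percent phospho/total signal per well.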

[4] abbreviates: [MK-2]=0.4 nM, [ATP]=10 μM, [ST3-Sox]=10 μM.
[5] abbreviates: percentage of modified protein after 60 minutes at room temperature, 10-fold excess of compound, MALDI (I-1 to I-50), magnetic bead MALDI (I-51 to I-129).

Where two headings read alike, the source gives them in different places.
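For Mass Modification in this document: covalent binding read from centroid mass shift of compound-treated versus untreated intact MK2, shift divided by compound molecular weight, giving fraction of total protein bound.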

Chain of p38α activated, mitogen-activated protein kinase-activated protein kinase 2 (MAPKAP-K2 or MK2) enzyme (P49137 whole entry): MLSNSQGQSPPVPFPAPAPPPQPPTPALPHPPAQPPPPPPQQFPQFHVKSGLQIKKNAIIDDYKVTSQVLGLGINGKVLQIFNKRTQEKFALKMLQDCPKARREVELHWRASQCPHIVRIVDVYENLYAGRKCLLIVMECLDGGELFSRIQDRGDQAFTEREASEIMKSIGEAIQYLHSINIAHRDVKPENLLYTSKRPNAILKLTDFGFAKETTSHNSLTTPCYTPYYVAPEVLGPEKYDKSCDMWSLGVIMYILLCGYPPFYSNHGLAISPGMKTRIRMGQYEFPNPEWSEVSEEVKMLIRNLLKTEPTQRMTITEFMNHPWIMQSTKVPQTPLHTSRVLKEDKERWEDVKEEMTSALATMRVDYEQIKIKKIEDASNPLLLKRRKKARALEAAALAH
T1 sequence (P49137 whole entry): as above

For the compound `COCc1nc(Cl)cc(Oc2ccc3c(ccc4sc5c(c43)NC[C@@H](C)NC5=O)n2)n1` [I-57, (R)-3-((6-chloro-2-(methoxymethyl)pyrimidin-4-yl)oxy)-10-methyl-9,10,11,12-tetrahydro-8H-[1,4]diazepino[5′,6′:4,5]thieno[3,2-f]quinolin-8-one], in assay [1] (setting [4]), the IC50 was less than 100 nM. Moreover, the “Mass Modification” value at MK2 [2] (setting [5]) is on record as “E (mass modification of ≧70%)”. Besides, on MK2 [3], the EC50 is less than 100 nM.
Regarding `Cc1nc(Cl)cc(Oc2ccc3c(ccc4sc5c(c43)NC[C@@H](C)NC5=O)n2)n1` [I-58, (R)-3-((6-chloro-2-methylpyrimidin-4-yl)oxy)-10-methyl-9,10,11,12-tetrahydro-8H-[1,4]diazepino[5′,6′:4,5]thieno[3,2-f]quinolin-8-one], the 50% inhibitory concentration (IC50) in assay [1] (setting [4]) was less than 100 nM. The “Mass Modification” value on MK2 [2] (setting [5]) was “E (mass modification of ≧70%)”. In addition, at MK2 [3], the EC50 is less than 100 nM.
Regarding `C[C@@H]1CNc2c(sc3ccc4nc(Nc5cc(Cl)nc(OC6CCCN(C)C6)n5)ccc4c23)C(=O)N1` (stereo partly drawn) [I-59, (10R)-3-((6-chloro-2-((1-methylpiperidin-3-yl)oxy)pyrimidin-4-yl)amino)-10-methyl-9,10,11,12-tetrahydro-8H-[1,4]diazepino[5′,6′:4,5]thieno[3,2-f]quinolin-8-one], the IC50 in assay [1] (setting [4]) was less than 100 nM. At MK2 [2] (setting [5]), the “Mass Modification” value is “E (mass modification of ≧70%)”. Moreover, at MK2 [3], the EC50 lay within 501 to 999 nM.
For `C[C@@H]1CNc2c(sc3ccc4nc(Nc5cc(Cl)nc(O[C@@H]6CCN(C)C6)n5)ccc4c23)C(=O)N1` [I-60, (R)-3-((6-chloro-2-(((R)-1-methylpyrrolidin-3-yl)oxy)pyrimidin-4-yl)amino)-10-methyl-9,10,11,12-tetrahydro-H-[1,4]diazepino[5′,6′:4,5]thieno[3,2-f]quinolin-8-one] the same measures were less than 100 nM, “F (mass modification of 31-69%)” and 101 to 500 nM.
Taken in the same sequence, the figures for `C[C@@H]1CNc2c(sc3ccc4nc(Nc5nc(Cl)cc(OCCN6CCN(C)CC6)n5)ccc4c23)C(=O)N1` [I-61, (R)-3-((4-chloro-6-(2-(4-methylpiperazin-1-yl)ethoxy)pyrimidin-2-yl)amino)-10-methyl-9,10,11,12-tetrahydro-8H-[1,4]diazepino[5′,6′:4,5]thieno[3,2-f]quinolin-8-one] were less than 100 nM, “G (mass modification ≦30%)” and greater than 1000 nM.
Taken in the same sequence, the figures for `C[C@@H]1CNc2c(sc3ccc4nc(Oc5nc(Cl)nc(N6CCCC6)n5)ccc4c23)C(=O)N1` [I-62, (R)-3-((4-chloro-6-(pyrrolidin-1-yl)-1,3,5-triazin-2-yl)oxy)-10-methyl-9,10,11,12-tetrahydro-8H-[1,4]diazepino[5′,6′:4,5]thieno[3,2-f]quinolin-8-one] were less than 100 nM, “E (mass modification of ≧70%)” and 101 to 500 nM.
In the case of `C[C@@H]1CNc2c(sc3ccc4nc(Oc5nc(Cl)nc(N6CCOCC6)n5)ccc4c23)C(=O)N1` [I-63, (R)-3-((4-chloro-6-morpholino-1,3,5-triazin-2-yl)oxy)-10-methyl-9,10,11,12-tetrahydro-8H-[1,4]diazepino[5′,6′:4,5]thieno[3,2-f]quinolin-8-one], the IC50 in assay [1] (setting [4]) was less than 100 nM. Besides, at MK2 [2] (setting [5]), the “Mass Modification” value is recorded as “E (mass modification of ≧70%)”. Moreover, the EC50 on MK2 [3] was less than 100 nM.
Consider `C[C@@H]1CNc2c(sc3ccc4nc(Oc5nc(Cl)nc(N6CCCCC6)n5)ccc4c23)C(=O)N1` [I-64, (R)-3-((4-chloro-6-(piperidin-1-yl)-1,3,5-triazin-2-yl)oxy)-10-methyl-9,10,11,12-tetrahydro-8H-[1,4]diazepino[5′,6′:4,5]thieno[3,2-f]quinolin-8-one], for which the IC50 in assay [1] (setting [4]) was less than 100 nM. Also, the “Mass Modification” value on MK2 [2] (setting [5]) is “E (mass modification of ≧70%)”. Also, on MK2 [3], the EC50 was greater than 1000 nM.
Taken in the same sequence, the figures for `Cc1nc(F)cc(Oc2ccc3c(ccc4sc5c(c43)NC[C@@H](C)NC5=O)n2)n1` [I-65, (R)-3-((6-fluoro-2-methylpyrimidin-4-yl)oxy)-10-methyl-9,10,11,12-tetrahydro-8H-[1,4]diazepino[5′,6′:4,5]thieno[3,2-f]quinolin-8-one] were less than 100 nM, “E (mass modification of ≧70%)” and 101 to 500 nM.
For the compound `C[C@@H]1CNc2c(sc3ccc4nc(Nc5cc(Cl)nc(OCCN6CCN(C)CC6)n5)ccc4c23)C(=O)N1` [I-66, (R)-3-((6-chloro-2-(2-(4-methylpiperazin-1-yl)ethoxy)pyrimidin-4-yl)amino)-10-methyl-9,10,11,12-tetrahydro-8H-[1,4]diazepino[5′,6′:4,5]thieno[3,2-f]quinolin-8-one], the IC50 in assay [1] (setting [4]) is less than 100 nM. Moreover, the “Mass Modification” value on MK2 [2] (setting [5]) is recorded as “F (mass modification of 31-69%)”. Further, the EC50 at MK2 [3] lay in the range of 101 to 500 nM.
For `COCCOc1nc(Cl)cc(Nc2ccc3c(ccc4sc5c(c43)NC[C@@H](C)NC5=O)n2)n1` [I-67, (R)-3-((6-chloro-2-(2-methoxyethoxy)pyrimidin-4-yl)amino)-10-methyl-9,10,11,12-tetrahydro-8H-[1,4]diazepino[5′,6′:4,5]thieno[3,2-f]quinolin-8-one] the same measures were less than 100 nM, “F (mass modification of 31-69%)” and 101 to 500 nM.
Taken in the same sequence, the figures for `C[C@@H]1CNc2c(sc3ccc4nc(Oc5cc(Cl)nc(CO)n5)ccc4c23)C(=O)N1` [I-68, (R)-3-((6-chloro-2-(hydroxymethyl)pyrimidin-4-yl)oxy)-10-methyl-9,10,12-tetrahydro-8H-[1,4]diazepino[5′,6′:4,5]thieno[3,2-f]quinolin-8-one] were less than 100 nM, “E (mass modification of ≧70%)” and less than 100 nM.
`COC(=O)c1nc(Cl)cc(Nc2ccc3c(ccc4sc5c(c43)NC[C@@H](C)NC5=O)n2)n1` [I-70, (R)-methyl 4-chloro-6-((10-methyl-8-oxo-9,10,11,12-tetrahydro-8H-[1,4]diazepino[5′,6′:4,5]thieno[3,2-f]quinolin-3-yl)amino)pyrimidine-2-carboxylate]: in assay [1], the IC50 was less than 100 nM. The “Mass Modification” value on MK2 [2] is on record as “E (key: E: mass modification of ≧70%; F: mass modification of 31-69%; G: mass modification ≦30%)”. Besides, the EC50 at MK2 [3] was less than 100 nM.
In the case of `COC(=O)c1nc(Cl)cc(Oc2ccc3c(ccc4sc5c(c43)NC[C@@H](C)NC5=O)n2)n1` [I-71, (R)-methyl 4-chloro-6-((10-methyl-8-oxo-9,10,11,12-tetrahydro-8H-[1,4]diazepino[5′,6′:4,5]thieno[3,2-f]quinolin-3-yl)oxy)pyrimidine-2-carboxylate], the half-inhibitory concentration (IC50) in assay [1] (setting [4]) was less than 100 nM. The “Mass Modification” value on MK2 [2] (setting [5]) is given as “E (mass modification of ≧70%)”. In addition, at MK2 [3], the EC50 was less than 100 nM.
For the compound `C[C@@H]1CNc2c(sc3ccc4nc(Sc5ccnc(Cl)n5)ccc4c23)C(=O)N1` [I-72, (R)-3-((2-chloropyrimidin-4-yl)thio)-10-methy-9,10,11,12-tetrahydro-8H-[1,4]diazepino[5′,6′:4,5]thieno[3,2-f]quinolin-8-one], in assay [1] (setting [4]), the IC50 was less than 100 nM. The “Mass Modification” value at MK2 [2] (setting [5]) is reported as “G (mass modification ≦30%)”. For the same compound, the EC50 on MK2 [3] was greater than 1000 nM.
For `C[C@@H]1CNc2c(sc3ccc4nc(Nc5cc(F)nc(CN6CCN(C)CC6)n5)ccc4c23)C(=O)N1` [I-73, (R)-3-((6-fluoro-2-((4-methylpiperazin-1-yl)methyl)pyrimidin-4-yl)amino)-10-methyl-9,10,11,12-tetrahydro-8H-[1,4]diazepino[5′,6′:4,5]thieno[3,2-f]quinolin-8-one] the same measures were less than 100 nM, “G (mass modification ≦30%)” and greater than 1000 nM.
Taken in the same sequence, the figures for `C[C@@H]1CNc2c(sc3ccc4nc(Nc5cc(F)nc(CN6CCCCC6)n5)ccc4c23)C(=O)N1` [I-74, (R)-3-((6-fluoro-2-(piperidin-1-ylmethyl)pyrimidin-4-yl)amino)-10-methyl-9,10,11,12-tetrahydro-8H-[1,4]diazepino[5′,6′:4,5]thieno[3,2-f]quinolin-8-one] were less than 100 nM, “E (mass modification of ≧70%)” and less than 100 nM.
For `C[C@@H]1CNc2c(sc3ccc4nc(Oc5nc(Cl)nc(N(C)C)n5)ccc4c23)C(=O)N1` [I-75, (R)-3-((4-chloro-6-(dimethylamino)-1,3,5-triazin-2-yl)oxy)-10-methyl-9,10,11,12-tetrahydro-8H-[1,4]diazepino[5′,6′:4,5]thieno[3,2-f]quinolin-8-one] the same measures were less than 100 nM, “E (mass modification of ≧70%)” and less than 100 nM.
Consider `COc1nc(Cl)nc(Oc2ccc3c(ccc4sc5c(c43)NC[C@@H](C)NC5=O)n2)n1` [I-76, (R)-3-((4-chloro-6-methoxy-1,3,5-triazin-2-yl)oxy)-10-methyl-9,10,11,12-tetrahydro-8H-[1,4]diazepino[5′,6′:4,5]thieno[3,2-f]quinolin-8-one], for which the IC50 in assay [1] (setting [4]) is less than 100 nM. Moreover, on MK2 [2] (setting [5]), the “Mass Modification” value is reported as “E (mass modification of ≧70%)”. The EC50 at MK2 [3] is greater than 1000 nM.

A word on the IC50: it is the point on the concentration scale where inhibition reaches its midpoint. Usually EC50 stands for the concentration needed to bring the measured effect to its halfway point.

(Values after patent US9790235B2, “MK2 inhibitors and uses thereof” (Celgene CAR LLC, priority 2014, dated 2017).)
